Results: US20250230193A1, “CYCLIC COMPOUND HAVING SELECTIVE KRAS INHIBITORY EFFECT ON HRAS AND NRAS” (CHUGAI SEIYAKU KABUSHIKI KAISHA, priority 2022, published 2025)

Assays:
[1] = target: GDP-bound NRAS wild-type protein (Homo sapiens, UniProt P01111); experiment: Binding to NRAS by surface plasmon resonance (SPR), Single Cycle Kinetics; details: SPR, GDP-bound NRAS wild-type vs GDP-bound KRAS wild-type
[2] = target: GDP-bound HRAS wild-type protein (Homo sapiens, UniProt P01112); experiment: Binding to HRAS by surface plasmon resonance (SPR), Single Cycle Kinetics; details: SPR, GDP-bound HRAS wild-type vs GDP-bound KRAS wild-type
Chain of GDP-bound HRAS wild-type protein (P01112 whole entry): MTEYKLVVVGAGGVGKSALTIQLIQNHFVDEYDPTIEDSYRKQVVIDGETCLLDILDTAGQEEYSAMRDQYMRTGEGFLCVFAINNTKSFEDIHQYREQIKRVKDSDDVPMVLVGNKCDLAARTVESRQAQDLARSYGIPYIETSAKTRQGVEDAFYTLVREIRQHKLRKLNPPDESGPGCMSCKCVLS

Chain of GDP-bound NRAS wild-type protein (P01111 whole entry): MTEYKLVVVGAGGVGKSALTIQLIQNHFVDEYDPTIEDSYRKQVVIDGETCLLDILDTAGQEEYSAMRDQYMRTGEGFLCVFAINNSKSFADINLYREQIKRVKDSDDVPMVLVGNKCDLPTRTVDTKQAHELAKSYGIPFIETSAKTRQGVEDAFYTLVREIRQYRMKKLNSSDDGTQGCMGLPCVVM

| Structure (SMILES) | NRAS/KRAS (ratio of KD value with respect to NRAS to KD value with respect to KRAS) [1] | HRAS/KRAS (ratio of KD value with respect to HRAS to KD value with respect to KRAS) [2] |
| --- | --- | --- |
| CCO[C@@H]1C[C@H]2C(=O)N(C)C3(CCC3)C(=O)N(C)[C@@H](C(CC)CC)C(=O)N(C)[C@H](C(=O)N(C)C)CC(=O)N(C)[C@@H](COC)C(=O)N[C@@H]([C@@H](C)CC)C(=O)N(C3CC3)CC(=O)N(C)[C@H]3C/C=C\CCN(C3=O)[C@@H](CC3CCCCC3)C(=O)N(C)CC(=O)N[C@@H](CCc3ccc(C(F)(F)F)c(OC)c3)C(=O)N2C1 [PP2339] | A (a compound having 10 or more and less than 20 is denoted as A) | A (a compound having 10 or more and less than 20 is denoted as A) |
| CCC[C@H]1C(=O)N[C@@H]([C@@H](C)CC)C(=O)N(C2CC2)CC(=O)N(C)[C@H]2C/C=C\CCN(C2=O)[C@@H](CC2CCCCC2)C(=O)N(C)CC(=O)N[C@@H](CCc2ccc(C(F)(F)F)c(OC)c2)C(=O)N2C[C@H](OCC)C[C@H]2C(=O)N(C)C2(CCC2)C(=O)N(C)[C@@H](C2CCCC2)C(=O)N(C)[C@H](C(=O)N(C)C)CC(=O)N1C [PP2340] | B (a compound having 3 or more and less than 10 is denoted as B) | B (a compound having 3 or more and less than 10 is denoted as B) |
| CCC[C@H]1C(=O)N[C@@H]([C@@H](C)CC)C(=O)N2CCC[C@H]2C(=O)N(C)[C@H]2C/C=C\CCN(C2=O)[C@@H](CC2CCCCC2)C(=O)N(C)CC(=O)N[C@@H](CCc2ccc(C(F)(F)F)c(OC)c2)C(=O)N2C[C@H](OCC)C[C@H]2C(=O)N(C)C2(CCC2)C(=O)N(C)[C@@H](C(CC)CC)C(=O)N(C)[C@H](C(=O)N(C)C)CC(=O)N1C [PP2341] | A (a compound having 10 or more and less than 20 is denoted as A) | A (a compound having 10 or more and less than 20 is denoted as A) |
| CCOC[C@H]1C(=O)N[C@@H]([C@@H](C)CC)C(=O)N(C2CC2)CC(=O)N(C)[C@H]2C/C=C\CCN(C2=O)[C@@H](CC2CCCCC2)C(=O)N(C)CC(=O)N[C@@H](CCc2ccc(C(F)(F)F)c(OC)c2)C(=O)N2C[C@H](OCC)C[C@H]2C(=O)N(C)C2(CCC2)C(=O)N(C)[C@@H](C2CCCC2)C(=O)N(C)[C@H](C(=O)N(C)C)CC(=O)N1C [PP2342] | A (a compound having 10 or more and less than 20 is denoted as A) | A (a compound having 10 or more and less than 20 is denoted as A) |
| CCC[C@H]1C(=O)N[C@@H]([C@@H](C)CC)C(=O)N2CCC[C@H]2C(=O)N(C)[C@H]2C/C=C\CCN(C2=O)[C@@H](CC2CCCCC2)C(=O)N(C)CC(=O)N[C@@H](CCc2ccc(C(F)(F)F)c(OC)c2)C(=O)N2C[C@H](OCC)C[C@H]2C(=O)N(C)C2(CCC2)C(=O)N(C)[C@@H](C2CCCC2)C(=O)N(C)[C@H](C(=O)N(C)C)CC(=O)N1C [PP2344] | A (a compound having 10 or more and less than 20 is denoted as A) | A (a compound having 10 or more and less than 20 is denoted as A) |
| CCC[C@H]1C(=O)N[C@@H]([C@@H](C)CC)C(=O)N(C)CC(=O)N(C)[C@H]2C/C=C\CCN(C2=O)[C@@H](CC2CCC(F)(F)CC2)C(=O)N(C)CC(=O)N[C@@H](CCc2ccc(C(F)(F)F)c(OC)c2)C(=O)N2C[C@H](OCC)C[C@H]2C(=O)N(C)C2(CCC2)C(=O)N(C)[C@@H](C(CC)CC)C(=O)N(C)[C@H](C(=O)N(C)C)CC(=O)N1C [PP2345] | A (a compound having 10 or more and less than 20 is denoted as A) | A (a compound having 10 or more and less than 20 is denoted as A) |
| CCOC[C@H]1C(=O)N[C@@H]([C@@H](C)CC)C(=O)N(C)CC(=O)N(C)[C@H]2C/C=C\CCN(C2=O)[C@@H](CC2CCC(F)(F)CC2)C(=O)N(C)CC(=O)N[C@@H](CCc2ccc(C(F)(F)F)c(OC)c2)C(=O)N2C[C@H](OCC)C[C@H]2C(=O)N(C)C2(CCC2)C(=O)N(C)[C@@H](C(CC)CC)C(=O)N(C)[C@H](C(=O)N(C)C)CC(=O)N1C [PP2347] | A (a compound having 10 or more and less than 20 is denoted as A) | A (a compound having 10 or more and less than 20 is denoted as A) |
| CCC[C@H]1C(=O)N[C@@H]([C@@H](C)CC)C(=O)N(C)CC(=O)N(C)[C@H]2C/C=C\CCN(C2=O)[C@@H](CC2CCC(F)(F)CC2)C(=O)N(C)CC(=O)N[C@@H](CCc2ccc(C(F)(F)F)c(OC)c2)C(=O)N2C[C@H](OCC)C[C@H]2C(=O)N(C)C2(CCC2)C(=O)N(C)[C@@H](C2CCCC2)C(=O)N(C)[C@H](C(=O)N(C)C)CC(=O)N1C [PP2348] | A (a compound having 10 or more and less than 20 is denoted as A) | A (a compound having 10 or more and less than 20 is denoted as A) |
| CCC[C@H]1C(=O)N[C@@H]([C@@H](C)CC)C(=O)N(C2CC2)CC(=O)N(C)[C@H]2C/C=C\CCN(C2=O)[C@@H](CC2CCC(F)(F)CC2)C(=O)N(C)CC(=O)N[C@@H](CCc2ccc(C(F)(F)F)c(OC)c2)C(=O)N2C[C@H](OCC)C[C@H]2C(=O)N(C)C2(CCC2)C(=O)N(C)[C@@H](C(CC)CC)C(=O)N(C)[C@H](C(=O)N(C)C)CC(=O)N1C [PP2349] | A (a compound having 10 or more and less than 20 is denoted as A) | A (a compound having 10 or more and less than 20 is denoted as A) |
| CCCOC[C@H]1C(=O)N[C@@H]([C@@H](C)CC)C(=O)N(C)CC(=O)N(C)[C@H]2C/C=C\CCN(C2=O)[C@@H](CC2CCC(F)(F)CC2)C(=O)N(C)CC(=O)N[C@@H](CCc2ccc(C(F)(F)F)c(OC)c2)C(=O)N2C[C@H](OCC)C[C@H]2C(=O)N(C)C2(CCC2)C(=O)N(C)[C@@H](C2CCCC2)C(=O)N(C)[C@H](C(=O)N(C)C)CC(=O)N1C [PP2350] | A (a compound having 10 or more and less than 20 is denoted as A) | A (a compound having 10 or more and less than 20 is denoted as A) |
| CCOC[C@H]1C(=O)N[C@@H]([C@@H](C)CC)C(=O)N(C2CC2)CC(=O)N(C)[C@H]2C/C=C\CCN(C2=O)[C@@H](CC2CCC(F)(F)CC2)C(=O)N(C)CC(=O)N[C@@H](CCc2ccc(C(F)(F)F)c(OC)c2)C(=O)N2C[C@H](OCC)C[C@H]2C(=O)N(C)C2(CCC2)C(=O)N(C)[C@@H](C(CC)CC)C(=O)N(C)[C@H](C(=O)N(C)C)CC(=O)N1C [PP2351] | A (a compound having 10 or more and less than 20 is denoted as A) | A (a compound having 10 or more and less than 20 is denoted as A) |
| CCC[C@H]1C(=O)N[C@@H]([C@@H](C)CC)C(=O)N(C2CC2)CC(=O)N(C)[C@H]2C/C=C\CCN(C2=O)[C@@H](CC2CCC(F)(F)CC2)C(=O)N(C)CC(=O)N[C@@H](CCc2ccc(C(F)(F)F)c(OC)c2)C(=O)N2C[C@H](OCC)C[C@H]2C(=O)N(C)C2(CCC2)C(=O)N(C)[C@@H](C2CCCC2)C(=O)N(C)[C@H](C(=O)N(C)C)CC(=O)N1C [PP2352] | A (a compound having 10 or more and less than 20 is denoted as A) | A (a compound having 10 or more and less than 20 is denoted as A) |
| CCC[C@H]1C(=O)N[C@@H]([C@@H](C)CC)C(=O)N2CCC[C@H]2C(=O)N(C)[C@H]2C/C=C\CCN(C2=O)[C@@H](CC2CCC(F)(F)CC2)C(=O)N(C)CC(=O)N[C@@H](CCc2ccc(C(F)(F)F)c(OC)c2)C(=O)N2C[C@H](OCC)C[C@H]2C(=O)N(C)C2(CCC2)C(=O)N(C)[C@@H](C(CC)CC)C(=O)N(C)[C@H](C(=O)N(C)C)CC(=O)N1C [PP2353] | A (a compound having 10 or more and less than 20 is denoted as A) | A (a compound having 10 or more and less than 20 is denoted as A) |
| CCCOC[C@H]1C(=O)N[C@@H]([C@@H](C)CC)C(=O)N(C2CC2)CC(=O)N(C)[C@H]2C/C=C\CCN(C2=O)[C@@H](CC2CCC(F)(F)CC2)C(=O)N(C)CC(=O)N[C@@H](CCc2ccc(C(F)(F)F)c(OC)c2)C(=O)N2C[C@H](OCC)C[C@H]2C(=O)N(C)C2(CCC2)C(=O)N(C)[C@@H](C2CCCC2)C(=O)N(C)[C@H](C(=O)N(C)C)CC(=O)N1C [PP2354] | A (a compound having 10 or more and less than 20 is denoted as A) | A (a compound having 10 or more and less than 20 is denoted as A) |
| CCOC[C@H]1C(=O)N[C@@H]([C@@H](C)CC)C(=O)N2CCC[C@H]2C(=O)N(C)[C@H]2C/C=C\CCN(C2=O)[C@@H](CC2CCC(F)(F)CC2)C(=O)N(C)CC(=O)N[C@@H](CCc2ccc(C(F)(F)F)c(OC)c2)C(=O)N2C[C@H](OCC)C[C@H]2C(=O)N(C)C2(CCC2)C(=O)N(C)[C@@H](C(CC)CC)C(=O)N(C)[C@H](C(=O)N(C)C)CC(=O)N1C [PP2355] | AA (a compound having 20 or more is denoted as AA) | A (a compound having 10 or more and less than 20 is denoted as A) |
| CCC[C@H]1C(=O)N[C@@H]([C@@H](C)CC)C(=O)N2CCC[C@H]2C(=O)N(C)[C@H]2C/C=C\CCN(C2=O)[C@@H](CC2CCC(F)(F)CC2)C(=O)N(C)CC(=O)N[C@@H](CCc2ccc(C(F)(F)F)c(OC)c2)C(=O)N2C[C@H](OCC)C[C@H]2C(=O)N(C)C2(CCC2)C(=O)N(C)[C@@H](C2CCCC2)C(=O)N(C)[C@H](C(=O)N(C)C)CC(=O)N1C [PP2356] | A (a compound having 10 or more and less than 20 is denoted as A) | A (a compound having 10 or more and less than 20 is denoted as A) |
